Measured values published in patent publication US7175991B2, “Method of measuring binding site on plasma protein of plasma protein-binding drug and method of measuring plasma protein mutation” (Nihon Medi-Physics Co., Ltd., priority 2002, dated 2007).
Read-outs that look alike come from different tables or passages of the source.

What was measured:
[1] = target: T1, HSA Site I (Homo sapiens, UniProt P02768); conditions: human serum 1; added drug 400 μM
[2] = tested on: AGP Site A and B; test: Four-nuclide simultaneous measurement, human serum 2 (AGP variant): displacement of ^3H-PPL
Excerpt: (§1) In addition, the possibility of monitoring the protein binding displacement effect of a drug in the serum was examined.

[3] = tested on: HSA Site II and AGP; test: Four-nuclide simultaneous measurement, human serum 2 (AGP variant): displacement of ^125I-IMP
Excerpt: as §1

[4] = target: T1, HSA Site I; test: Four-nuclide simultaneous measurement, human serum 1: displacement of ^99mTcO4^-; conditions: human serum 1, four nuclides
[5] = target: T1, HSA Site I; test: Four-nuclide simultaneous measurement, human serum 2 (AGP variant): displacement of ^99mTcO4^-
Excerpt: as §1

[6] = tested on: AGP Site A and B; conditions: for Change ratio (time) of ^3H-PPL free drug ratio / Free drug ratio (%) of ^3H-PPL: human, 400 μM, pH 7.4
[7] = target: T1, HSA Site I; conditions: 400 μM, pH 7.4
[8] = tested on: HSA Site II and AGP; conditions: human, 400 μM, pH 7.4
[9] = target: HSA Site II (Homo sapiens, UniProt P02768); conditions: for Change ratio (time) of ^14C-DZP free drug ratio / Free drug ratio (%) of ^14C-DZP: human, 400 μM, pH 7.4
[10] = target: T1, HSA Site I; test: Table 6, two-nuclide simultaneous measure, human pooled serum: column headed ^99mTcO4^-; conditions: physiological saline instead of displacement drug
[11] = tested on: plasma protein; conditions: used in the concentration of a diagnostic agent; cited from earlier work
[12] = tested on: HSA Site II and AGP; test: Four-nuclide simultaneous measurement, human serum 1: displacement of ^125I-IMP; conditions: human serum 1, four nuclides
[13] = tested on: HSA Site II and AGP; test: Table 6, two-nuclide simultaneous measure, human pooled serum: column headed ^125I-IMP; conditions: physiological saline instead of displacement drug
[14] = physiological saline instead of displacement drug (Table 5)
[15] = physiological saline instead of drug (Table 4)
[16] = physiological saline control (Table 8)
[17] = physiological saline instead of drug (Table 7)

Sequence of HSA Site II (P02768 25-609): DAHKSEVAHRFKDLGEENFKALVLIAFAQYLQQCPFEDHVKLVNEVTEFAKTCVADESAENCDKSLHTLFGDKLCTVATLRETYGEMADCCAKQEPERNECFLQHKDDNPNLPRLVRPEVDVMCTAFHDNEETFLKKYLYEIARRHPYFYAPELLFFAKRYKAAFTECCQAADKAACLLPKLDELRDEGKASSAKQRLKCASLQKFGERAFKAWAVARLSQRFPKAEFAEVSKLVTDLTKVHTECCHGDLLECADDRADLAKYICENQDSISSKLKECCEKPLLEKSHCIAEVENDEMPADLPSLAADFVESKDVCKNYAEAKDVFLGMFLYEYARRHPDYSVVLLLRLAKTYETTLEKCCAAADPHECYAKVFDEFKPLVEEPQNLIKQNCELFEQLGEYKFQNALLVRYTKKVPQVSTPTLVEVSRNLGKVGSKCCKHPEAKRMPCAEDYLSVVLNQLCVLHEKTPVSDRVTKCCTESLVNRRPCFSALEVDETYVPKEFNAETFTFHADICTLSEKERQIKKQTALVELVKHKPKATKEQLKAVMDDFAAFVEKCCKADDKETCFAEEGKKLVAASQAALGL
T1 sequence (P02768 25-609): as above

What does the source list for `CCCCC1C(=O)NC(=O)N(C2CCCCC2)C1=O` (stereo not shown) [BCL, bucolome]?
Displacement effect on ^14C-WRF, in words [1]: significant displacement effect; Effect on binding of ^3H-PPL, in words ([2]; human serum 2 (AGP variant)): increased; Effect on binding of ^125I-IMP, in words [3]: increased; Displacement effect on drug with affinity to site I of HSA (^99mTcO4^-), in words [4]: significant displacement effect; Displacement effect on ^99mTcO4^-, in words [5]: significant displacement effect

For `CC[C@H]1OC(=O)[C@H](C)[C@@H](O[C@H]2C[C@@](C)(OC)[C@@H](O)[C@H](C)O2)[C@H](C)[C@@H](O[C@@H]2O[C@H](C)C[C@H](N(C)C)[C@H]2O)[C@](C)(O)C[C@@H](C)C(=O)[C@H](C)[C@@H](O)[C@]1(C)O` [ETM, erythromycin], which “Effect on free drug with affinity to AGP, in words” value [6] is on record?
The value was “effective displacement drug”.

What about the “Change ratio (time) of ^3H-PPL free drug ratio” value [6] of the same molecule?
The value was 1.93 time.

And the “Free drug ratio (%) of ^3H-PPL” value [6]?
The value was 23.79%.

What about the “Change ratio (time) of ^99mTcO4^- free drug ratio” value [7] of the same molecule?
The value was 0.99 time.

And the “Free drug ratio (%) of ^99mTcO4^-” value [7]?
Its value is 0.88%.

And the “Change ratio (time) of ^125I-IMP free drug ratio” value [8]?
Its value is 1.61 time.

What about the “Free drug ratio (%) of ^125I-IMP” value [8] of the same molecule?
The value was 54.78%.

What about the “Change ratio (time) of ^14C-DZP free drug ratio” value [9] of the same molecule?
Its value is 1.04 time.

And the “Free drug ratio (%) of ^14C-DZP” value [9]?
The value was 2.67%.

Which “Effect on binding of ^3H-PPL, in words” value [2] does the source give for `CC(C)Cc1ccc(C(C)C(=O)O)cc1` (stereo not shown) [IPF, ibuprofen] here?
Its value is “increased”.

For `CC(=O)N[C@@H](Cc1c[nH]c2ccccc12)C(=O)O` [NAT, N-acetyltryptophan], which “Effect on free drug with affinity to AGP, in words” value [6] is on record?
The value was “effect to reduce the concentration to some extent”.

And the “Change ratio (time) of ^3H-PPL free drug ratio” value [6]?
Its value is 0.94 time.

What about the “Free drug ratio (%) of ^3H-PPL” value [6] of the same molecule?
The value was 11.54%.

And the “Change ratio (time) of ^99mTcO4^- free drug ratio” value [7]?
Its value is 1.07 time.

What about the “Free drug ratio (%) of ^99mTcO4^-” value [7] of the same molecule?
Its value is 0.97%.

And the “Change ratio (time) of ^125I-IMP free drug ratio” value [8]?
Its value is 1.01 time.

And the “Free drug ratio (%) of ^125I-IMP” value [8]?
Its value is 34.19%.

And the “Effect on free drug with affinity to site II of HSA, in words” value [9]?
Its value is “effective displacement drug”.

What about the “Change ratio (time) of ^14C-DZP free drug ratio” value [9] of the same molecule?
Its value is 1.21 time.

And the “Free drug ratio (%) of ^14C-DZP” value [9]?
Its value is 3.08%.

Which results are given for `N[C@@H](Cc1c[nH]c2ccccc12)C(=O)O` [Trp, tryptophan]?
Change ratio (time) of ^3H-PPL free drug ratio [6]: 1.01 time; Change ratio (time) of ^99mTcO4^- free drug ratio [7]: 1.08 time; Change ratio (time) of ^125I-IMP free drug ratio [8]: 0.94 time; Change ratio (time) of ^14C-DZP free drug ratio [9]: 2.25 time

With `[O]=[99Tc](=[O])(=[O])[O-]` [^99 mTcO4^-, Pertechnetium acid] as the molecule, how does the “Free drug ratio of control (%), ^99mTcO4^-” value [10] read?
Its value is 0.90%.

And the “Free drug ratio of control (%), ^99mTcO4^-” value [4, 14]?
The value was 21.07%.

What about the “Free drug ratio of control (%), ^99mTcO4^-” value [4, 15] of the same molecule?
Its value is 21.07%.

What about the “Free drug ratio of control (%), ^99mTcO4^-” value [5, 16] of the same molecule?
Its value is 21.08%.

What about the “Free drug ratio of control (%), ^99mTcO4^-” value [5, 17] of the same molecule?
Its value is 21.08%.

Which “Binding to plasma protein” value [11] does the source give for `O=C([O-])CN=C([O-])CN=C([O-])CN=C([O-])C[S-].[O-2].[Tc+4]` [^99mTc-MAG3, 99m-technetium labeled mercaptoacetylglycylglycylglycine] here?
Its value is “about 90%”.

Which results are given for `CC(C)NC(C)Cc1ccc([125I])cc1` (stereo not shown) [^125I-IMP]?
Free drug ratio of control (%), ^125I-IMP [3, 16]: 27.23%; Free drug ratio of control (%), ^125I-IMP [3, 17]: 27.23%; Free drug ratio of control (%), ^125I-IMP [12, 14]: 23.40%; Free drug ratio of control (%), ^125I-IMP [12, 15]: 23.40%; Free drug ratio of control (%), ^125I-IMP [13]: 33.98%
